Experiment [1] addresses CDK2/Cyclin A (Homo sapiens, UniProt P24941). Nature of the experiment: Inhibition of CDK2/Cyclin A Retinoblastoma Kinase Activity. It is filed as biochemical. The following applies: for inhibition at 0.05 µM: read-out: % inhibition of CDK2 (@ 0.05 μM), compound at 0.05 μM; for Ki: apparent Ki, CDK2/proteolyzed cyclin A, Rb fragment substrate, 25 μM ATP. Here is the method:
Cyclin-dependent kinase activity was measured by quantifying the enzyme-catalyzed, time-dependent incorporation of radioactive phosphate from [^32P]ATP or [^33P]ATP into a protein substrate. Unless noted otherwise, assays were performed in 96-well plates in a total volume of 50 μL, in the presence of 10 mM HEPES (N-[2-hydroxyethyl]piperazine-N′-[2-ethanesulfonic acid]) (pH 7.4), 10 mM MgCl2, 25 μM adenosine triphosphate (ATP), 1 mg/mL ovalbumin, 5 μg/mL leupeptin, 1 mM dithiothreitol, 10 mM β-glycerophosphate, 0.1 mM sodium vanadate, 1 mM sodium fluoride, 2.5 mM ethylene glycol-bis(β-aminoethyl ether)-N,N,N′N′-tetraacetic acid (EGTA), 2% (v/v) dimethylsulfoxide, and 0.03-0.4 μCi [^32/33P]ATP per reaction. Reactions were initiated with enzyme, incubated at 30° C., and terminated after 20 minutes by the addition of ethylenediaminetetraacetic acid (EDTA) to 250 mM. The phosphorylated substrate was then captured on a nitrocellulose or phosphocellulose membrane using a 96-well filtration manifold, and unincorporated radioactivity was removed by repeated washing with 0.85% phosphoric acid. Radioactivity was quantified by exposing the dried membranes to a phosphorimager.
Inhibition was measured relative to control wells that contained all reaction components including 2% (v/v) DMSO but no compound, after subtraction of background radioactivity measured in the absence of enzyme. Apparent Ki values of discrete compounds were measured by assaying enzyme activity in the presence of different inhibitor compound concentrations and subtracting the background radioactivity measured in the absence of enzyme. The kinetic parameters (kcat, Km for ATP) were measured for each enzyme under the usual assay conditions by determining the dependence of initial rates on ATP concentration. Inhibition data were fit to an equation for competitive inhibition using Kaleidagraph (Synergy Software), or were fit to an equation for competitive tight-binding inhibition using the software KineTic (BioKin, Ltd.).
Inhibition of CDK2/Cyclin A Retinoblastoma Kinase Activity:
CDK2 was purified using published methodology (Rosenblatt et al., “Purification and Crystallization of Human Cyclin-dependent Kinase 2,” J. Mol. Biol., vol. 230, 1993, pp. 1317-1319) from insect cells that had been infected with a baculovirus expression vector. […] A complex of CDK2 and proteolyzed cyclin A was prepared and purified by gel filtration. The substrate for this assay was the same Rb substrate fragment used for the CDK4 assays, and the methodology of the CDK2/delta cyclin A and the CDK4/delta cyclin D3 assays was essentially the same, except that CDK2 was present at 10 nM or 19 nM. The duration of the assay was 60 or 75 minutes, during which the time-dependence of product formation was linear and initial rate conditions were met. And, the percent inhibitions of the compounds of Example O through Example R were calculated as described above and shown in Table 2.

Experiment [2] relates to HCT-116 cell line. Nature of the experiment: Inhibition of cell growth, tetrazolium salt (MTT) assay. The following applies: for inhibition at 0.175 µM / IC50 / inhibition at 0.25 µM: Homo sapiens; for inhibition at 0.175 µM: HCT-116, HCT-116 cells, compound at 0.175 uM; for inhibition at 0.175 µM / IC50: MTT; for IC50: HCT-116, 120 h, three to five days, read-out: HCT-116 IC50; for inhibition at 0.25 µM: HCT-116, HCT116 cells, read-out: % Inhibition HCT116 @ 250 nM. It is filed as cell-based. The procedure:
Inhibition of Cell Growth: Assessment of Cytotoxicity:
Inhibition of cell growth was measured using the tetrazolium salt assay, which is based on the ability of viable cells to reduce 3-(4,5-dimethylthiazol-2-yl)-2,5-[2H]-diphenyltetrazolium bromide (MTT) to formazan (Mossman, Journal of Immunological Methods, vol. 65 (1983), pp. 55-58). The water-insoluble purple formazan product was then detected spectrophotometrically. The HCT-116 cell line was used as a representative cancer cell line and grown in 96-well plates. Cells were plated in McCoy's 5A Medium at a volume of 135 μl/well. Plates were incubated for four hours before addition of inhibitor compounds. Different concentrations of inhibitor compounds were added in 0.5% (v/v) dimethylsulfoxide (15 μLuwell), and cells were incubated at 37° C. (5% CO2) for three to five days. At the end of the incubation, MTT was added to a final concentration of 0.2 mg/mL, and cells were incubated for 4 hours more at 37° C. After centrifugation of the plates and removal of medium, the absorbance of the formazan (solubilized in dimethylsulfoxide) was measured at 540 nm. […] All results were compared to control cells treated only with 0.5% (v/v) dimethylsulfoxide.

36 compounds from patent US20050101595A1, “N-containing cycloalkyl-substituted amino-thiazole derivatives and pharmaceutical compositions for inhibiting cell proliferation and methods for their use” (PFIZER INC., priority 2003, published 2005) can be followed below.

Like-named read-outs stand apart in the source and are kept apart here.

By inhibition is commonly meant the change of the read-out against control, counted positive when it falls. Take `CNCCCS(=O)(=O)N1CCC(Nc2nc(N)c(C(=O)c3c(F)cccc3F)s2)CC1` [Example V86]: in experiment [1], the inhibition at 0.05 µM was 61%. Moreover, the inhibition at 0.175 µM in experiment [2] stood at 22%.

As to `COCCCNCCCS(=O)(=O)N1CCC(Nc2nc(N)c(C(=O)c3c(F)cccc3F)s2)CC1` [Example V40], in experiment [1], the inhibition at 0.05 µM came out at 80%. Also, the inhibition at 0.175 µM in experiment [2] was 0%. As to `COC(=O)C1CCN(CCCS(=O)(=O)N2CCC(Nc3nc(N)c(C(=O)c4c(F)cccc4F)s3)CC2)C1` (stereo not shown) [Example V160], the inhibition at 0.05 µM in experiment [1] came to 84%. The inhibition at 0.175 µM in experiment [2] was found to be 0%. Taken in the same sequence, the figures for `Nc1nc(NC2CCN(S(=O)(=O)CCCN[C@H]3CCC(=O)NC3)CC2)sc1C(=O)c1c(F)cccc1F` [Example V157] were 83% and 46%. Taken in the same sequence, the figures for `Cc1ccnc(NCCCS(=O)(=O)N2CCC(Nc3nc(N)c(C(=O)c4c(F)cccc4F)s3)CC2)c1` [Example V109] were 85% and 0%. Taken in the same sequence, the figures for `Nc1nc(NC2CCN(S(=O)(=O)CCCN3CCCCCC3)CC2)sc1C(=O)c1c(F)cccc1F` [Example V69] were 81% and 54%. Turning to `Nc1nc(NC2CCN(S(=O)(=O)CCCNCCc3ncn[nH]3)CC2)sc1C(=O)c1c(F)cccc1F` [Example V150], in experiment [1], the inhibition at 0.05 µM was 87%. Also, the inhibition at 0.175 µM in experiment [2] was 18%. The IC50 is the midpoint of a concentration-inhibition curve. `CC1(C)CCCN(CCCS(=O)(=O)N2CCC(Nc3nc(N)c(C(=O)c4c(F)cccc4F)s3)CC2)C1` [Example K60, {4-Amino-2-[(1-{[3-(3,3-dimethylpiperidin-1-yl)propyl]sulfonyl}piperidin-4-yl)amino]-1,3-thiazol-5-yl}(2,6-difluorophenyl)methanone]: the Ki in experiment [1] was determined as 13 nM. Further, the IC50 in experiment [2] (first HCT-116 column (c4)) came out at 120 nM. Turning to `Nc1nc(NC2CCN(S(=O)(=O)CCCNCc3ccncc3)CC2)sc1C(=O)c1c(F)cccc1F` [Example V23], in experiment [1], the inhibition at 0.05 µM worked out at 87%. Besides, the inhibition at 0.175 µM in experiment [2] stood at 24%. In the case of `CCSCCNCCCS(=O)(=O)N1CCC(Nc2nc(N)c(C(=O)c3c(F)cccc3F)s2)CC1` [Example V129], the inhibition at 0.05 µM in experiment [1] was 88%. Moreover, the inhibition at 0.175 µM in experiment [2] is 49%. On the same counts, the results for `CN1CCN(CCCS(=O)(=O)N2CCC(Nc3nc(N)c(C(=O)c4c(F)cccc4F)s3)CC2)CC1` [Example V35] are 72% and 17%.

As for `Nc1nc(NC2CCN(S(=O)(=O)CCCNCCCc3c[nH]cn3)CC2)sc1C(=O)c1c(F)cccc1F` [Example V146], in experiment [1], the inhibition at 0.05 µM turned out to be 82%. Moreover, the inhibition at 0.175 µM in experiment [2] was 13%. Taken in the same sequence, the figures for `Nc1ccc(CNCCCS(=O)(=O)N2CCC(Nc3nc(N)c(C(=O)c4c(F)cccc4F)s3)CC2)cc1` [Example V47] were 85% and 13%. In the case of `Cc1ccccc1CNCCCS(=O)(=O)N1CCC(Nc2nc(N)c(C(=O)c3c(F)cccc3F)s2)CC1` [Example V184, (4-Amino-2-{[1-({3-[(2-methylbenzyl)amino]propyl}sulfonyl)-4-piperidinyl]amino}-1,3-thiazol-5-yl)(2,6-difluorophenyl)methanone.], the Ki in experiment [1] worked out at 3.6 nM. For the same compound, in experiment [2] (first HCT-116 column (c4)), the IC50 was 60 nM. On to `CN(C)CCCS(=O)(=O)N1CCC(Nc2nc(N)c(C(=O)c3c(F)cccc3F)s2)CC1` [Example V147], for which the inhibition at 0.05 µM in experiment [1] came out at 78%. In experiment [2], the inhibition at 0.175 µM was 23%. For the compound `CC(C)[C@@H](CO)NCCS(=O)(=O)N1CCC(Nc2nc(N)c(C(=O)c3c(F)cccc3F)s2)CC1` [Example S156], in experiment [2] (compound at 250 nM), the inhibition at 0.25 µM was 17%. The same measure, in the same setting: to `COCCN(C)CCS(=O)(=O)N1CCC(Nc2nc(N)c(C(=O)c3c(F)cccc3F)s2)CC1` [Example S65] belongs 8%. Still for that read-out and setting: to `CC(C)c1ccc(CNCCS(=O)(=O)N2CCC(Nc3nc(N)c(C(=O)c4c(F)cccc4F)s3)CC2)cc1` [Example S138] belongs 22%; to `NC(=O)[C@H]1CCCN1CCS(=O)(=O)N1CCC(Nc2nc(N)c(C(=O)c3c(F)cccc3F)s2)CC1` [Example S64], 12%.

For `Nc1nc(NC2CCN(S(=O)(=O)CCNCCc3cccnc3)CC2)sc1C(=O)c1c(F)cccc1F` [Example S167], the inhibition at 0.25 µM in experiment [2] (compound at 250 nM) is 3%. With `CC1CCCN1CCS(=O)(=O)N1CCC(Nc2nc(N)c(C(=O)c3c(F)cccc3F)s2)CC1` (racemic) [Example S40], the “% Inhibition HCT116 @ 250 nM” value in experiment [2] (HCT116 cells, compound at 250 nM) is reported as 93%. `CN(CCc1ccccc1)CCS(=O)(=O)N1CCC(Nc2nc(N)c(C(=O)c3c(F)cccc3F)s2)CC1` [Example S29]: the inhibition at 0.25 µM in experiment [2] (compound at 250 nM) was found to be 18%. The same measure, in the same setting: to `Nc1nc(NC2CCN(S(=O)(=O)CCNCc3ccccc3)CC2)sc1C(=O)c1c(F)cccc1F` [Example S94] belongs 64%; to `CC(C)C(NCCS(=O)(=O)N1CCC(Nc2nc(N)c(C(=O)c3c(F)cccc3F)s2)CC1)C(C)C` [Example S135], 100%. Consider `CC(C)OCCCNCCS(=O)(=O)N1CCC(Nc2nc(N)c(C(=O)c3c(F)cccc3F)s2)CC1` [Example S123], for which the inhibition at 0.25 µM in experiment [2] (compound at 250 nM) was determined as 15%. For the compound `Nc1nc(NC2CCN(S(=O)(=O)CCNCc3ccc(Cl)cc3)CC2)sc1C(=O)c1c(F)cccc1F` [Example S103], in experiment [2] (compound at 250 nM), the inhibition at 0.25 µM came out at 25%. With `CCN(CCO)CCS(=O)(=O)N1CCC(Nc2nc(N)c(C(=O)c3c(F)cccc3F)s2)CC1` [Example S5], in experiment [2] (compound at 250 nM), the inhibition at 0.25 µM came out at 26%. On the same count and under the same terms, the figure for `Nc1nc(NC2CCN(S(=O)(=O)CCN[C@@H]3C=CCCC3)CC2)sc1C(=O)c1c(F)cccc1F` [Example S170] is 15%; for `CC(NCCS(=O)(=O)N1CCC(Nc2nc(N)c(C(=O)c3c(F)cccc3F)s2)CC1)c1ccc(F)cc1` (stereo not shown) [Example S144] it is 43%.

In the case of `Nc1nc(NC2CCN(S(=O)(=O)CCNCc3c(F)cccc3F)CC2)sc1C(=O)c1c(F)cccc1F` [Example K50, (4-Amino-2-{1-[2-(2,6-difluoro-benzylamino)-ethanesulfonyl]-piperidin-4-ylamino}-thiazol-5-yl)-(2,6-difluoro-phenyl)-methanone], the IC50 stood at 200 nM in experiment [2] (first HCT-116 column (c4)) and 500 nM in experiment [2] (second HCT-116 column (c5)).

`Nc1nc(NC2CCN(S(=O)(=O)CCNCCc3ccncc3)CC2)sc1C(=O)c1c(F)cccc1F` [Example S140]: the inhibition at 0.25 µM in experiment [2] (compound at 250 nM) was found to be 25%. On the same count and under the same terms, to `Nc1nc(NC2CCN(S(=O)(=O)CCN3CCN(C=O)CC3)CC2)sc1C(=O)c1c(F)cccc1F` [Example S17] belongs 19%; to `COCC(C)NCCS(=O)(=O)N1CCC(Nc2nc(N)c(C(=O)c3c(F)cccc3F)s2)CC1` (stereo not shown) [Example S89], 17%; to `Nc1nc(NC2CCN(S(=O)(=O)CCNCCO)CC2)sc1C(=O)c1c(F)cccc1F` [Example S115], 68%. The same measure, in the same setting: the figure for `C#CCNCCS(=O)(=O)N1CCC(Nc2nc(N)c(C(=O)c3c(F)cccc3F)s2)CC1` [Example S119] is 20%. Still for that read-out and setting: to `CN(CC#N)CCS(=O)(=O)N1CCC(Nc2nc(N)c(C(=O)c3c(F)cccc3F)s2)CC1` [Example S53] belongs 17%.
